Results on eight compounds are retold here after ChEMBL document CHEMBL1142021, “Aglycon specificity profiling of alpha-glucosidases using synthetic probes” (Bioorg Med Chem Lett, 2005).

Test [1] deals with T1, Mannosyl-oligosaccharide glucosidase (Homo sapiens) (UniProt Q13724).
T1 sequence (whole entry): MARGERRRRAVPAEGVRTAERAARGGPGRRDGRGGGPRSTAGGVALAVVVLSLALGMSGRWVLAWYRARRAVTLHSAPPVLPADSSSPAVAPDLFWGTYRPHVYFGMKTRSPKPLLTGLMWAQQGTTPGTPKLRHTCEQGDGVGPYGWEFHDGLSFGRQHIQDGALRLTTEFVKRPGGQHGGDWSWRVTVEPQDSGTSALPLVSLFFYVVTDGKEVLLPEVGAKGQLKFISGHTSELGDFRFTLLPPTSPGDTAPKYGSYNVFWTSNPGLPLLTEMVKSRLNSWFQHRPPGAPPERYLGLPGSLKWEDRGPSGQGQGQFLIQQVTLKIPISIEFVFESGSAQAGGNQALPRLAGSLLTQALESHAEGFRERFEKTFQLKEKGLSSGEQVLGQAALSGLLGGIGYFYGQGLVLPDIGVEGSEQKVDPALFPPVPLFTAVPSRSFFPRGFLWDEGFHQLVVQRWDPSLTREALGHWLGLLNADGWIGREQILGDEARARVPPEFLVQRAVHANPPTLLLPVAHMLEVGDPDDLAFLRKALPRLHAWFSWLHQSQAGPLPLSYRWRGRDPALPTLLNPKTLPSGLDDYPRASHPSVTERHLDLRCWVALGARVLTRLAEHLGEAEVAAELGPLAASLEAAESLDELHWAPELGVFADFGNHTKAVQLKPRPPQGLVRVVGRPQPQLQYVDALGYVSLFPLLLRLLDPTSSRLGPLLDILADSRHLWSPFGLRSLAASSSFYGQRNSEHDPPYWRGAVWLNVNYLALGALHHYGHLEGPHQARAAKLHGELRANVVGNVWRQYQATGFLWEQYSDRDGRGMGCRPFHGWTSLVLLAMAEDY
Description: Inhibition of Glucosidase 1 (of Endoplasmic reticulum processing alpha-glucosidase) at 2 umol/mL.

In test [2] the target is T2, Beta-mannosidase (Homo sapiens) (UniProt O00462).
T2 sequence (whole entry): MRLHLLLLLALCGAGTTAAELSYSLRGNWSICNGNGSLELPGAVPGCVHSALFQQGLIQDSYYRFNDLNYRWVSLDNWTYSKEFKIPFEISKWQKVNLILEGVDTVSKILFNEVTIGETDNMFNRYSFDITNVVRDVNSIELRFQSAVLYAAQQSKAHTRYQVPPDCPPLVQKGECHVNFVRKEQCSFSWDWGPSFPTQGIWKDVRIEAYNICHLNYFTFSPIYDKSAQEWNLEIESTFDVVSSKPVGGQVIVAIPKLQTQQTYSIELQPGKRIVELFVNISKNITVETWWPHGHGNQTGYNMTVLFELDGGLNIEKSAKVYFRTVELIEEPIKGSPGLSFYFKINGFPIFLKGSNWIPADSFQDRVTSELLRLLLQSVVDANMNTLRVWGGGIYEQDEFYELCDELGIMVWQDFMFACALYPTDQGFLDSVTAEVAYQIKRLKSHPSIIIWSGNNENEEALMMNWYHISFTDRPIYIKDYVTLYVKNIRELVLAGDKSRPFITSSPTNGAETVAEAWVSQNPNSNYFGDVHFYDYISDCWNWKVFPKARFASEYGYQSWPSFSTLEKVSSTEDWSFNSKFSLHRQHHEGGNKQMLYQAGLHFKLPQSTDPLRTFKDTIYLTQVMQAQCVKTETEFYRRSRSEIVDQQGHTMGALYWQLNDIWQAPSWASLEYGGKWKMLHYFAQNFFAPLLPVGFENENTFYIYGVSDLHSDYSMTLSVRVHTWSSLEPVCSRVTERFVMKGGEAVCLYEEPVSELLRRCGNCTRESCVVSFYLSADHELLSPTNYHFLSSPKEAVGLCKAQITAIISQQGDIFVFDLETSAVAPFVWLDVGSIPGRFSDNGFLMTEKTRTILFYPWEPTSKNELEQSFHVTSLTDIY
Description: Inhibition of beta-Mannosidase at 5 umol/mL.

For the next test, the species on record is Homo sapiens. Description: Inhibition of Glucosidase 2 at 12 umol/mL.
A short description of test [3]: Inhibition of beta-Mannosidase. The settings on record: Homo sapiens; concentration not given here.
The target in test [4] is T1, Mannosyl-oligosaccharide glucosidase (Homo sapiens). Description: Inhibition of Glucosidase 1(of Endoplasmic reticulum processing alpha-glucosidase) at 2 umol/mL.
Test [5] is described as follows: Competitive Inhibition constant for Saccharomyces cerevisiae glucosidase.
Test [6] is described as follows: Inhibitory concentration for Saccharomyces cerevisiae glucosidase (of family 13 alpha-glucosidase) at 1 umol/mL.
The target of test [7] is T3, Lysosomal alpha-mannosidase (Homo sapiens) (UniProt O00754).
T3 sequence (whole entry): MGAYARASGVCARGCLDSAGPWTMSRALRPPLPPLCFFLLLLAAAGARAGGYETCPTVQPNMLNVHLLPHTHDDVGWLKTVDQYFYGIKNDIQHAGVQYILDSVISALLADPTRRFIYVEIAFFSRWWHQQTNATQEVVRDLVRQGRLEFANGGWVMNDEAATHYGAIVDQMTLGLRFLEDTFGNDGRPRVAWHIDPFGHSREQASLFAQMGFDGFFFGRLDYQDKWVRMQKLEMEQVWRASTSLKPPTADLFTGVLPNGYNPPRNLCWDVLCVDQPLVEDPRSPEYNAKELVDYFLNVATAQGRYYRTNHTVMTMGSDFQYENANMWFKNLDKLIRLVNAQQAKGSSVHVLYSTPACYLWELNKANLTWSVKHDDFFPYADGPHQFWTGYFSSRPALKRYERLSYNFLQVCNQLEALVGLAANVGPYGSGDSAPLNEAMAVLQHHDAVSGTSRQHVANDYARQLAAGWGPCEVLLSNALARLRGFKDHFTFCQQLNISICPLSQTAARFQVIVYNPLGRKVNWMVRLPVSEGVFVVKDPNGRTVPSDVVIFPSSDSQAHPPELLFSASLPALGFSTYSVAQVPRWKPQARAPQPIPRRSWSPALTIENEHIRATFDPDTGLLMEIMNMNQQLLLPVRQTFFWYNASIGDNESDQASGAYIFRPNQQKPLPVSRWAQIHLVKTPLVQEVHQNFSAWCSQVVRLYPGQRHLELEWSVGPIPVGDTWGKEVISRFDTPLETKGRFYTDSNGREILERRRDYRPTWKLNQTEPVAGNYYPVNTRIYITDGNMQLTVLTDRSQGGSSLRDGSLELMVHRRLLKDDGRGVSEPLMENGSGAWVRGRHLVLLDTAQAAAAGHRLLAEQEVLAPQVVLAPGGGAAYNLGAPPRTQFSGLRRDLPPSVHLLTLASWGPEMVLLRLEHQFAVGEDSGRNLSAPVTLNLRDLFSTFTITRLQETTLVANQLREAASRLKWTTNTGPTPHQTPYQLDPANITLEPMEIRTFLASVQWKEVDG
Briefly: Inhibition of alpha-Mannosidase. Particulars: concentration not given here.

pIC50, pKi: −log10 of the molar value. Some results are limits rather than exact numbers.

For orientation: inhibition means how much of the control response was suppressed. A higher inhibition goes with a response far below the control. A word on the pKi: it is the negative decadic logarithm of the Ki, by convention in mol/L. By pIC50 is commonly meant the negative decadic logarithm of the IC50, by convention in mol/L.

Turning to `O=C(CCO)NCC1OC(CO)C(O)C(O)C1O` (configuration not stated), the inhibition (in test [1]; in test [2]; in the test filed under Homo sapiens) was < 1% throughout.
On to `CC(C)(C)C(=O)NCC1OC(CO)C(O)C(O)C1O` (configuration not stated), for which the inhibition in test [1] and in test [2] was < 1% each time.
Consider `O=C(CCCCCO)NCC1OC(CO)C(O)C(O)C1O` (configuration not stated), for which the inhibition in test [1] and in test [2] was < 1% throughout.
`O=C(NCC1OC(CO)C(O)C(O)C1O)c1ccccc1` (configuration not stated): the results for the inhibition in test [3] and in test [4] were < 1% and 18.2%, respectively. Moreover, the pKi in test [5] is 3.30. This compound gave a negative logarithm of the IC50 (pIC50) in test [6] of 3.35.
`O=C(CCCO)NCC1OC(CO)C(O)C(O)C1O` (configuration not stated): the inhibition in test [7], in test [1] and in test [2] was < 1% throughout.
On to `O=C(CO)NCC1OC(CO)C(O)C(O)C1O` (configuration not stated), for which the inhibition in test [1] and in test [2] was < 1% each time.
On to `CC(=O)NCC1OC(CO)C(O)C(O)C1O` (configuration not stated), for which the inhibition in test [1] and in test [2] was < 1% throughout.
With `O=C(CCCCO)NCC1OC(CO)C(O)C(O)C1O` (configuration not stated), the inhibition in test [1] and in test [2] was < 1% each time. The pKi in test [5] is 3.89. This compound had a pIC50 in test [6] of 4.26.
